Experimental data as given in PMC6753139, “TRIM66 reads unmodified H3R2K4 and H3K56ac to respond to DNA damage in embryonic stem cells” (Nature Communications, 2019).

Molecular target: T1, TRIM66-WT965-1160 (Homo sapiens, UniProt O15016)
T1 construct: ITC titration: titrating TRIM66-WT965-1160 with various histone H3 peptides; GST (N, cleaved yes); made in house; host or cells: Escherichia coli BL21 (DE3)
T1 sequence (O15016 1100-1295): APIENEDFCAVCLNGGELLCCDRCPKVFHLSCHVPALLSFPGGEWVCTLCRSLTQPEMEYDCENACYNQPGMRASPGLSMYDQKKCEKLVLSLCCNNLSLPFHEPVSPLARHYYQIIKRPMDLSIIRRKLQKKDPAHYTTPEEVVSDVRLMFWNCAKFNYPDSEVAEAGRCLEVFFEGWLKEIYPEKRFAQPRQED
Test: ITC, PHD-Bromodomain wild type
Assay type: binding
Conditions: ITC, MicroCal PEAQ-ITC, 25 °C, 20 mM Tris, 100 mM NaCl, pH 7.5; single measurement, error from curve fit; Weak binding = ITC curves cannot be fitted reliably; N.D. = no detectable binding
Description: We next performed the glutathione S-transferase (GST) pulldown assays of the TRIM66-WT965-1160 against the calf thymus histones to verify the histone-binding ability of TRIM66 PHD-Bromodomain. […] The PHD of TRIM66 shared a low conservation with those of ING4, PHF2, and BPTF, and lacked the conserved aromatic residues, which were necessary for binding H3K4me2/3[40]–[42] (Supplementary Fig. 2b). Nevertheless, TRIM66 was highly conserved in sequence and structure with the PHDs of TRIM24 and TRIM33 (Fig. 1c and Supplementary Fig. 2b), which were reported to bind H3K4me0[5],[6]; thus, we speculated that the PHD of TRIM66 could bind H3K4me0. To verify this hypothesis, we performed isothermal titration calorimetry (ITC)-based binding assays. […] Based on previous researches reporting the acetyl-lysine binding partners of Bromodomain[3]–[12], we chose a series of related peptides derived from H3 and H4, to test their interactions with TRIM66-WT965-1160 by ITC experiments. […] We further found the acetylated state of K56 was necessary for this binding (Supplementary Fig. 3b).
We next titrated the TRIM66-WT965-1160 with a series of R2-methylated H3 peptides through ITC assays. […] This finding was consistent with the structural observation that each NηH atom of the R2 formed a hydrogen bond with residues in protein (Fig. 2d).
The DNA fragments of human TRIM66_968-1160, TRIM24_824-1006, and TRIM33_882-1087 were amplified from a human bone marrow cDNA library using a PCR-based cloning strategy. The fragments of TRIM66-WT968-1160 were inserted into a pGEX-4T-1 plasmid (GE Healthcare). The fragments of TRIM24_824-1006 and TRIM33_882-1087 were ligated into a pET-SUMO-28a (+) plasmid (Novagen). The DNA fragments of TRIM66-MUT968-1160 and TRIM66-WT965-1160 with codon optimization were synthesized by General Biosystems (sequence was shown in Supplementary Methods) and inserted into a pGEXT-4T-1 plasmid (GE Healthcare). Mutants of TRIM66 PHD-Bromo were generated through PCR using the Mutant Best kit (Takara). The mutation of point mutant based on the codon-optimized DNA sequence of TRIM66-WT965-1160. All constructs were expressed in Escherichia coli BL21 (DE3). The construct of ASF1a1-156 inserted into a pRSFDuet plasmid (courtesy of Ruiming Xu Lab, Institute of Biophysics, Chinese Academy of Sciences) was expressed in E. coli BL21 (DE3) RIL. The construct of full-length H4 inserted into a pET3a plasmid was expressed in E. coli BL21 (DE3). The expression of full-length histone H3K56ac was performed in BL21 (DE3) cells transformed with pBK-AxcKRS3 and pET22b encoding H3 with amber codons at the K56 site[12]. The DNA fragment of full-length TRIM66 was synthesized by General Biosystems and ligated into fugw vector (Addgene). See the information of protein sequence in Supplementary Table 1.
The calorimetric experiments were performed at 25 °C using a MicroCal PEAQ-ITC. The proteins were dialyzed using a buffer containing 20 mM Tris and 100 mM NaCl at pH 7.5. Lyophilized peptides were dissolved in the same buffer and adjusted to pH 7.5 prior to use. Peptide concentrations were estimated from the quantitative NMR experiments[73],[74]. ITC measurements were performed via injection of 0.7–4 mM peptide into a cell containing 0.12 mM TRIM24-PHD-Bromo, 0.05 mM TRIM33 PHD-Bromo, and 0.05 or 0.11–0.15 mM TRIM66-PHD-Bromo (or its mutants). The ITC data were subsequently analyzed using the MicroCal PEAQ-ITC analysis software.

In the case of `C[C@H](N)C(=O)N[C@@H](CCCNC(=N)N)C(=O)N[C@H](C(=O)N[C@@H](CCCCN)C(=O)N[C@@H](CCC(N)=O)C(=O)N[C@H](C(=O)N[C@@H](C)C(=O)N[C@@H](CCCNC(=N)N)C(=O)N[C@@H](CCCCN)C(=O)N[C@@H](CO)C(=O)N[C@H](C(=O)NCC(=O)O)[C@@H](C)O)[C@@H](C)O)[C@@H](C)O` [H3_1-12], the Kd is reported as 15.7 ± 0.64 µM.
